What was measured:
potato plants = assay: Field test of desiccant effect on potato plants (foliar spray before harvest); assay type: in vivo; details: application amount 10 g/ha; emulsifiable concentrate diluted with water containing 1% (v/v) crop oil concentrate, sprayed at the time of foliage turning yellow; examined 14 day after treatment; average of 3 sections
From the text: Seed potatoes were planted on a field and grown. At the time of the foliage turning yellow, 2.5 parts of each of compounds a-5 and a-6, 10 parts of Sorpol 3890 (Toho Chemical Industry Co., Ltd.), and 87.5 parts of SOLVESSO 200 (Exxon Mobile Chemical Company) were well mixed to give an emulsifiable concentrate for each compound, diluted at a prescribed dose with water containing 1% (v/v) crop oil concentrate (COC), and the dilution was uniformly sprayed to the plants. One section of the treated field are 2.1×15.2 m in area, and the potato plants on 14 day after the treatment were examined for the desiccant effect. In the table, the desiccation effect was evaluated with following criteria.
1: The desiccated area of foliage is 0 to 29%
2: The desiccated area of foliage is 30 to 69%
3: The desiccated area of foliage is 70 to 89%
4: The desiccated area of foliage is 90 to 99%
5: The desiccated area of foliage is 100%
The treatment was done in 3 sections, the result was indicated with an average of the 3 sections.

Row | Structure (SMILES) | melting point [°C] | Desiccation effect (potato plants)
1 | COC(=O)COc1ncccc1Oc1cc(-n2c(=O)cc(C(F)(F)F)n(C)c2=O)c(F)cc1Cl [Compound a-6, methyl [3-{2-chloro-4-fluoro-5-[3-methyl-2,6-dioxo-4-(trifluoromethyl)-1,2,3,6-tetrahydropyrimidin-1-yl]phenoxy}-2-pyridyloxy]acetate] | 52.2 | 5 (The desiccated area of foliage is 100%)
2 | COC(=O)COc1ccccc1Oc1cc(-n2c(=O)cc(C(F)(F)F)n(C)c2=O)c(F)cc1Cl [Compound a-5, methyl [2-{2-chloro-4-fluoro-5-[3-methyl-2,6-dioxo-4-(trifluoromethyl)-1,2,3,6-tetrahydropyrimidin-1-yl]phenoxy}phenoxy]acetate] |  | 5 (The desiccated area of foliage is 100%)

— patent US7538072B2, “Stem/leaf desiccant” (Sumitomo Chemical Company, Limited, priority 2001, dated 2009)
